Experimental data reported in ChEMBL document CHEMBL1130842, “Synthesis and in vitro cytotoxicity of lipophilic platinum(II) complexes” (Bioorg Med Chem Lett, 1998).
≈ marks a conversion by molar mass, not a printed value.

Columns and labels:
Format in all cases: functional, cell-based
M96 = test: Cytotoxicity was evaluated against melanoma M96 cell-line by MTT assay; conditions: Homo sapiens
Lung NSCLC-N6 cell-line = test: Cytotoxicity was evaluated against lung NSCLC-N6 cell-line by MTT assay; conditions: Homo sapiens
E39 = test: Cytotoxicity was evaluated against renal E39 cell-line by MTT assay; conditions: Homo sapiens
P388 = test: Cytotoxicity was evaluated against leukemia P388 cell-line by MTT assay; conditions: Mus musculus

Question: Which IC50 (M96) does the source give for `CCCCCCCCCCCCCCC(N)CN` (centres undefined) here?
Answer: 7.8 µg/mL (≈ 30.4 µM)

Question: And the IC50 (Lung NSCLC-N6 cell-line)?
Answer: 1.1 µg/mL (≈ 4.29 µM)

Question: And the IC50 (E39)?
Answer: 5.3 µg/mL (≈ 20.7 µM)

Question: What about the IC50 (P388) of the same compound?
Answer: 0.1 µg/mL (≈ 0.39 µM)
